Results reported in the CheMixHub viscosity set.
Values joined by “and” are separate entries in the source; they are usually repeats but may differ in a detail not shown here. Identical values can stand only once.

What was measured:
[1] = xn = mol fraction of the nth substance listed

COCCO
viscosity
Conditions | 293.15 K | 298.15 K | 303.15 K | 308.15 K | 313.15 K | 318.15 K | 323.15 K
100 kPa | – | 1.649 mPa·s and 1.563 mPa·s | 1.457 mPa·s | 1.292 mPa·s | 1.15 mPa·s and 1.188 mPa·s | – | –
101 kPa | 1.78 mPa·s | – | – | – | – | – | 0.931 mPa·s and 0.9856 mPa·s and 0.965 mPa·s
101.3 kPa | – | 1.522 mPa·s and 1.695 mPa·s | 1.381 mPa·s and 1.525 mPa·s and 1.376 mPa·s | 1.242 mPa·s and 1.368 mPa·s | 1.151 mPa·s and 1.155 mPa·s | – | 0.9746 mPa·s
101.33 kPa | – | 1.552 mPa·s | 1.476 mPa·s | – | 1.2 mPa·s and 1.189 mPa·s | 1.098 mPa·s and 1.04 mPa·s and 1.042 mPa·s | –

C#CC(C)(C)O + O
viscosity [mPa·s], [1], 101.32 kPa
Conditions | x1 = 0.1001 | x1 = 0.2003 | x1 = 0.3009 | x1 = 0.4001 | x1 = 0.5004 | x1 = 0.602 | x1 = 0.7044 | x1 = 0.8017 | x1 = 0.9005
308.15 K | 1.612 | 2.02 | 2.2 | 2.289 | 2.308 | 2.297 | 2.254 | 2.21 | 2.152
313.15 K | 1.403 | 1.78 | 1.92 | 1.973 | 1.986 | 1.968 | 1.928 | 1.898 | 1.838
318.15 K | 1.24 | 1.56 | 1.67 | 1.7 | 1.719 | 1.712 | 1.669 | 1.643 | 1.582
323.15 K | 1.105 | 1.369 | 1.45 | 1.483 | 1.498 | 1.486 | 1.449 | 1.424 | 1.376

C1CCNCC1 + O
viscosity [mPa·s], [1], 101 kPa
Conditions | x1 = 0.05 | x1 = 0.1 | x1 = 0.2 | x1 = 0.3 | x1 = 0.35 | x1 = 0.4 | x1 = 0.6 | x1 = 0.8
298.15 K | 1.9 | 3.06 | 4.76 | 5.4 | 5.42 | 5.13 | 3.38 | 2.05
323.15 K | 0.887 | 1.26 | 1.77 | 1.94 | 1.94 | 1.86 | 1.38 | 0.993

CCCC(C)O (configuration not stated) + O
[1], 298.15 K, 101 kPa
Conditions | viscosity [mPa·s]
x2 = 0.008 | 3.443
x2 = 0.0721 | 3.234
x2 = 0.0934 | 3.182
x2 = 0.1359 | 3.129
x2 = 0.1655 | 3.111
x2 = 0.1981 | 3.104
x2 = 0.2187 | 3.114
x2 = 0.2403 | 3.119
x2 = 0.255 | 3.125
x2 = 0.2971 | 3.163

CCCCCCCCCCCCOS(=O)(=O)[O-].[Na+] + O
[1], 101.33 kPa
Conditions | viscosity [mPa·s]
303.15 K, x1 = 0.000252 | 0.8085
308.15 K, x1 = 0.000324 | 0.7345
308.15 K, x1 = 0.000432 | 0.7465
313.15 K, x1 = 7.2e-05 | 0.6585

CCN(C=O)CC + O
[1], 298.16 K, 101 kPa
Conditions | viscosity [mPa·s]
x2 = 0.1029 | 1.23
x2 = 0.247 | 1.47
x2 = 0.3904 | 1.84
x2 = 0.5426 | 2.38
x2 = 0.6681 | 2.83
x2 = 0.7344 | 3
x2 = 0.7646 | 3.01
x2 = 0.8236 | 2.9
x2 = 0.8813 | 2.53

C1CC[C@H]2CCCC[C@H]2C1 + O=C1CCCCC1
viscosity [mPa·s], [1], 101.3 kPa
Conditions | 293.15 K | 303.15 K
x2 = 0.05 | 3.262 | 2.558
x2 = 0.1446 | 3.118 | 2.471
x2 = 0.2281 | 3.006 | 2.399
x2 = 0.35 | 2.863 | 2.302
x2 = 0.4482 | 2.767 | 2.231
x2 = 0.5559 | 2.68 | 2.159
x2 = 0.6271 | 2.634 | 2.115
x2 = 0.7252 | 2.586 | 2.06
x2 = 0.8051 | 2.56 | 2.019
x2 = 0.8571 | 2.549 | 1.995
x2 = 0.9322 | 2.543 | 1.964
